Source: publication PMC5085131, “Cyclic AMP efflux inhibitors as potential therapeutic agents for leukemia” (Oncotarget, 2016)
Read-outs that look alike come from different tables or passages of the source.

Key:
[1] = system: U937 cells; assay: F-cAMP efflux assay in U937 cells (screen and dose response); format: cell-based, human; conditions: for Outcome of screen for inhibitors of cAMP efflux after dose-response validation: screen at 10 μM, 51 hits retested in dose-response
Procedure: (§1) Cells were loaded with F-cAMP as described. Briefly, cells were resuspended in a hypertonic solution containing 10% polyethylene glycol 1000, 0.5 M sucrose, and 250 μM F-cAMP in cRPMI without FBS, incubated 10 min at room temperature, washed, and then resuspended in hypotonic solution (60% cRPMI, 40% sterile water) for 2 min at room temperature to complete F-cAMP loading. Cells were resuspended in cRPMI and equilibrated for 2 h under normal culture conditions.
(§2) Samples were evaluated using Accuri C6 or BD FACScan flow cytometers (Becton Dickinson (BD)).
Liquid handling was accomplished with a Biomek FX Multichannel system (Beckman-Coulter, Fullerton, CA, USA) and/or Biotek Multiflo system (Winooski, VT, USA). F-cAMP-loaded U937 cells (2000/well) were seeded into 384-well polypropylene plates (Greiner Bio-One 784201, Monroe, NC, USA). Cells were treated with compounds (10 μM final concentration) from the Prestwick Chemical Library (Illkirch, France) or […] Collection (MicroSource, Gaylordsville, CT, USA) delivered by pintool (V&P Scientific, San Diego, CA), at a final DMSO concentration of 1%. Plates were foil-sealed with AlumaSeal 384™ (Excel Scientific, Victorville, CA, USA), and incubated inverted overnight. Sample plates were analyzed by CyAn flow cytometers (Beckman-Coulter) configured with HyperCyt high-throughput auto-sampler systems (IntelliCyt, Albuquerque, NM, USA) using 488 nm excitation to assess FL-1 (530/40) MFI levels.
Data were analyzed with HyperView software (IntelliCyt) and time-gated to determine data from each well. Wells with ≥ 50 events were evaluated for FL-1 MFI values. Samples with MFI values ≥ 2 standard deviations above the plate mean negative control values were considered “hit” compounds.
To validate sample data and decrease the number of false-positive hits, compounds were assayed in a high-throughput dose response assay. Plates were set up as in the HTS, with the exception that the plate formats contained 10-well dose responses for each hit compound, at final concentrations ranging from 30 μM to 4 nM.
The dose response data were normalized for percent response based on sample FL-1 MFI values in comparison to untreated F-cAMP-loaded cells kept at 4°C overnight or at time = 0, and were fitted by GraphPad Prism 5 software (GraphPad Software, La Jolla, CA, USA) for sigmoidal dose response with constrained hill slope = 1.

[2] = molecular target: VLA-4; set-up: method as in PMID 18534032; conditions: cited from earlier work
[3] = system: U937 cells; assay: Cell viability by 7-AAD exclusion with or without KH7; format: cell-based, human; conditions: overnight, 6 μM KH7, 7-AAD staining
Procedure: Cells treated with ICE and control samples were incubated with 1 μg/ml of 7-AAD for 20-60 minutes at 4°C on a rotator in the dark, and analyzed by flow cytometry according to manufacturer instructions. Gates were set on 7-AAD negative and positive events based on histograms. Percent of 7-AAD negative events is shown.

[4] = system: U937 cells; assay: MultiCyt 4-Plex apoptosis assay; format: cell-based, human; conditions: Homo sapiens, U-937, 24 h
Procedure: Apoptosis was determined using MultiCyt® 4-Plex Apoptosis Screening Kit (IntelliCyt, cat. 90053). The kit provides four different apoptosis endpoints that include effector caspases 3 and 7 activation, phosphatidylserine surface expression, mitochondrial membrane depolarization and cell membrane integrity. […] Cell membrane damage is detected by the uptake of a proprietary DNA intercalating agent analogous to 7-aminoactinomycin D.
384-well plates (Greiner 784201), pre-loaded with 5 μL cRPMI were stamped using a pintool with 100 nl of DMSO-solubilized compounds from the 100-fold concentrated stock solution. Next, 5 μL U937 cells (2 × 10^6/ml in cRPMI) were added to wells and mixed, and plates were foil-sealed. Compounds (Table 1) were tested in dose response at final concentrations ranging from 15.2 nM to 100 μM (1% DMSO final). Vehicle (DMSO) was used as a negative control. After 24 h incubation under culture conditions, the IntelliCyt MultiCyt 4-Plex Apoptosis Screening Kit was used according to manufacturer's protocol. The data were acquired using iQue Screener Platform (IntelliCyt). Singlet cell populations were analyzed for individual measures of apoptosis, and gates were set based on control histograms.

[5] = system: 697; assay: CellTiter-Glo cell viability; format: cell-based; conditions: Homo sapiens; overnight, n = 6, ± SEM; read-out: Compound EC50, 697 (cell viability)
Procedure: (§3) Cell viability was determined with the CellTiter-Glo® Luminescent Cell Viability Assay (Promega). Greiner 655083 had 100 μL cRPMI +/− 4×10^4 cells/well, and dose response curves of compounds ranged from 100 μM to 1.53 nM (1% DMSO). Wells with DMSO-only served as negative controls. Samples were incubated overnight, and the assay was completed according to the manufacturer's protocol. Plates were analyzed using a Victor^3V™ 1420 Multilabel Counter (Perkin Elmer).

[6] = system: RS4;11; assay: CellTiter-Glo cell viability; format: cell-based; conditions: Homo sapiens, overnight, n = 6, ± SEM, read-out: Compound EC50, RS4;11 (cell viability)
Procedure: as §3

[7] = system: Sup B15; assay: CellTiter-Glo cell viability; format: cell-based; conditions: Homo sapiens, overnight, n = 6, ± SEM, read-out: Compound EC50, Sup B15 (cell viability)
Procedure: as §3

[8] = system: U937 cells; assay: CellTiter-Glo cell viability; format: cell-based; conditions: Homo sapiens, U-937; overnight, n = 8, ± SEM, fit top = 100, bottom = 0, hill slope = −1; read-out: Compound EC50, U937 (cell viability)
Procedure: as §3

[9] = system: normal human PBMCs; assay: CellTiter-Glo cell viability; format: cell-based; conditions: PBMC, overnight, n = 6, ± SEM, read-out: Compound EC50, PBMCs (cell viability)
Procedure: Healthy PBMCs were obtained from volunteers. Mononuclear cells were purified using Mono-Poly resolving medium (MP Biomedicals, cat. 091698049) according to manufacturer's instructions. PBMCs were resuspended in cRPMI and kept on ice prior to use.
as §3

[10] = system: B-ALL cell lines; assay: CellTiter-Glo cell viability, all B-ALL cell lines together; format: cell-based, human; conditions: for EC50: Homo sapiens, mean of converged EC50s of six B-ALL lines, read-out: Compound EC50, Mean B-ALL (cell viability); for Sensitivity of B-ALL lines compared with U937 cells: cell viability, overnight
Procedure: as §3

[11] = system: primary B-ALL patient samples; assay: CellTiter-Glo cell viability of primary ALL patient samples ex vivo; format: cell-based, human; conditions: for EC50: Homo sapiens
Procedure: Bone marrow samples were acquired at diagnosis from pediatric B-ALL patients. Mononuclear cells were enriched by centrifugation in Ficoll-Paque (GE Healthcare, cat. 17-1440-02) and aliquoted for storage in liquid nitrogen until use. Samples were thawed in a 37°C water bath, resuspended in 20% FBS cRPMI, and centrifuged to remove freezing medium. Cells were resuspended in conditioned medium (DMEM, 10% FBS, 50 U/ml penicillin-streptomycin, 2 mM L-glutamine) from HS-5 stromal cell cultures.
as §3
For primary ALL patient samples, media consisted of 50% cRPMI, 50% conditioned DMEM from HS-5 stromal cell cultures and compounds. Cell densities ranged from 28,000-68,000 cells/well, and plates were foil-sealed prior to incubation.

[12] = set-up: method as in as printed in each cell; conditions: previously reported; cited from earlier work
[13] = system: Reh; assay: CellTiter-Glo cell viability; format: cell-based; conditions: Homo sapiens, overnight, n = 6, ± SEM, read-out: Compound EC50, Reh (cell viability)
Procedure: as §3

[14] = system: B-ALL cell lines; assay: F-cAMP efflux in B-ALL cell lines with MK-571; format: cell-based, human; conditions: 37°C
Procedure: as §1, §2

[15] = mean of converged EC50s, read-out: Compound EC50, Means (of the apoptosis endpoints)
[16] = n = 4, ± SEM, read-out: Compound EC50, Cell membrane damage
[17] = n = 4, ± SEM, read-out: Compound EC50, Mitochondrial depolarization
[18] = mean of converged EC50s of six patient samples, read-out: Compound EC50 (Sample means), cell viability
[19] = primary B-ALL sample, duplicate, ± SEM, read-out: Compound EC50 (Patient no. 2), cell viability
[20] = primary B-ALL sample, duplicate, ± SEM, read-out: Compound EC50 (Patient no. 3), cell viability
[21] = primary B-ALL sample, duplicate, ± SEM, read-out: Compound EC50 (Patient no. 5), cell viability
[22] = primary B-ALL sample, duplicate, ± SEM, read-out: Compound EC50 (Patient no. 6), cell viability
[23] = primary B-ALL sample, duplicate, ± SEM, read-out: Compound EC50 (Patient no. 1), cell viability

Molecule: C[C@@H]1CC[C@H]2[C@@H](C)C(=O)O[C@@H]3O[C@@]4(C)CC[C@@H]1[C@]32OO4 [artemisinin]
- Outcome of screen for inhibitors of cAMP efflux after dose-response validation [1]: potentially active

Molecule: 4-((N'-2-methylphenyl)ureido)-phenylacetyl-L-leucyl-L-aspartyl-L-valyl-L-prolyl-L-alanyl-L-alanyl-L-lysine-FITC [LDV-FITC]
- Kd ([2]; high affinity state, read-out: Kd for physiologically activated VLA-4): 0.001 to 0.002 µM
- Kd ([2]; low affinity state, read-out: Kd for binding to resting VLA-4): ~0.012 µM

Molecule: O=C1c2ccc(O)c(O)c2C(=O)c2c(O)ccc(O)c21 [quinalizarin]
- Outcome of screen for inhibitors of cAMP efflux after dose-response validation [1]: potentially active

Molecule: CC1=NCCc2c1[nH]c1cc(O)ccc21 [harmalol]
- Outcome of screen for inhibitors of cAMP efflux after dose-response validation [1]: potentially active

Molecule: CC(Sc1nc2ccccc2[nH]1)C(=O)N/N=C/c1cc(Br)ccc1O (stereo not shown) [KH7]
- Effect of KH7 on cell viability loss induced by ICE [3]: significant protective effect

Molecule: C[C@H]1[C@@H](O)O[C@@H]2O[C@@]3(C)CC[C@H]4[C@H](C)CC[C@@H]1[C@@]24OO3 [Dihydroartemisinin]
- EC50 [4, 15]: 16.4 µM
- EC50 [4, 16]: 23.7 ± 19.4 µM
- EC50 [4, 17]: 9.21 ± 7.52 µM
- EC50 [5]: 55.5 ± 16.8 µM
- EC50 [6]: 26.2 ± 7.94 µM
- EC50 [7]: 141 ± 49.5 µM
- EC50 [8]: 1.32 ± 0.58 µM
- EC50 [9]: 128 ± 34.2 µM
- EC50 [10]: 74.4 µM
- Sensitivity of B-ALL lines compared with U937 cells [10]: decreased sensitivity
- EC50 [11, 18]: 46.6 µM
- EC50 [11, 19]: 47.5 ± 12.2 µM
- EC50 [11, 20]: 83.2 ± 74.2 µM
- EC50 [11, 21]: 11.5 ± 5.02 µM
- EC50 [11, 22]: 44.1 ± 32.2 µM
- Cell viability vs. vehicle treated sample at lower concentrations ([11]; samples from patients no. 1 and no. 5): significant increase in cell viability
- Anticancer effects [12]: ↓VEGF expression & angiogenesis [99, 101, 102]; ↓cyclin B, CDC25 [87]

Molecule: CN(C)C(=O)CCSC(SCCC(=O)O)c1cccc(/C=C/c2ccc3ccc(Cl)cc3n2)c1 (stereo not shown) [MK-571]
- EC50 ([1]; Homo sapiens, U-937, read-out: EC50 for cAMP efflux blocking, U937 cells loaded with F-cAMP, overnight, 37°C): ~30 µM
- Block of loss of F-cAMP probe fluorescence ([1]; U937 cells, 24 h, 37°C): A significant part of this loss was blocked
- EC50 [5]: 126 ± 109 µM
- EC50 [13]: 226 ± 93.6 µM
- EC50 [7]: 144 ± 47.8 µM
- EC50 [8]: 94.2 ± 35.5 µM
- EC50 [9]: 157 ± 66.4 µM
- EC50 [10]: 165 µM
- EC50 [11, 18]: 298 µM
- EC50 [11, 23]: 298 ± 140 µM
- Active F-cAMP efflux in the presence of MK-571 ([14]; Group 1: Sup-B15 and MHH-Call3, overnight): blocked completely
- F-cAMP removed with MK-571 ([14]; Group 2: Reh and RS4;11, overnight, 75-80% without MK-571): 30-40%
- F-cAMP removed with MK-571 ([14]; Group 3: 697 and Nalm-6, overnight, > 90% without MK-571): 60-70%

Molecule: C[C@H]1[C@H](OC(=O)CCC(=O)O)O[C@@H]2O[C@@]3(C)CC[C@H]4[C@H](C)CC[C@@H]1[C@@]24OO3 [Artesunate]
- EC50 [4, 15]: 24.6 µM
- EC50 ([4]; n = 4, ± SEM, read-out: Compound EC50, Annexin-V +): 29.5 ± 1.85 µM
- EC50 [4, 16]: 18.6 ± 1.89 µM
- EC50 [4, 17]: 25.7 ± 0.82 µM
- EC50 [5]: 99.6 ± 27.7 µM
- EC50 [6]: 33.7 ± 10.6 µM
- EC50 [7]: 326 ± 88.5 µM
- EC50 [8]: 7.99 ± 3.24 µM
- EC50 [9]: 280 ± 91.4 µM
- EC50 [10]: 153 µM
- Sensitivity of B-ALL lines compared with U937 cells [10]: decreased sensitivity
- EC50 [11, 18]: 84.6 µM
- EC50 [11, 23]: 116 ± 55.2 µM
- EC50 [11, 19]: 115 ± 22.7 µM
- EC50 [11, 20]: 66 ± 27.6 µM
- EC50 [11, 21]: 24.6 ± 12.2 µM
- EC50 [11, 22]: 100 ± 48.7 µM
- Anticancer effects [12]: ↓metastasis/migration [80, 83]; ↓VEGF expression/angiogenesis [70, 76, 80]; ↓cyclins B & D1, Cdks 2, 4, 6[70]; ↑p21, p27 [70]
- Potential mechanism(s) of action [12]: ↓NFκB & AP-1 activation [83, 130, 131]; ↓nitric oxide, cAMP-mediated, Wnt/β-catenin, PI3K/Akt signaling [81, 130, 131]; ↑ROS [70, 72, 78]
